Where a name gives a salt, the structure may show the parent alone. Read-outs that look alike come from different tables or passages of the source.
Biological target: T1, human β3 (Homo sapiens, UniProt P13945)
T1 construct: And then full length of human β3 gene was cloned using this fragment as a probe; expressed in transfected cells; host or cells: CHO cells (Chinese hamster ovary), pcDNA3 vector
Assay: Human β3-agonist activity (cAMP in CHO cells transfected with human β3 gene)
Format: cell-based
Conditions: for Emax: CHO, read-out: Intrinsic activity (%)
Procedure: Human β3-agonist Activity
Human β3-agonist activity was examined using CHO cells (chinese hamster ovarian cells) to which pcDNA3 (in vitrogen) cells inserted human β3 gene was transfected. Human β3 fragment was obtained by PCR using human fat tissue cDNA (supplied from Clontech) with a β3 primer [Krief et al, J. Clin. Invest.
The cells were cultured in a HAM F-12 medium containing 10% of fetal bovine serum, 400 μg/ml of Geneticin (Gibco BRL). 100 U/ml penicillin and 100 μg/ml streptomycin. 5×10^5 cells were placed on a 6-well plate and cultured for 24 hours, after which the medium was changed to a HAM F-12 medium without serum and was kept for 2 hours. Each test compound was first dissolved in DMSO, and then diluted with a HAM F-12 medium containing 1 mM isobutylmethyl xanthine and 1 mM ascorbic acid. A 10-fold dilution in the range of 10^−5 to 10^−12 M was added into the cell.
After culturing for 30 minutes, culture medium was withdrawn, 0.5 ml of 1 N NaOH was added and was kept for 20 minutes. And then 0.5 ml of 1 N acetic acid was added with subsequent agitation and centrifugation. Finally the concentration of cAMP were analyzed using cAMP EIA KIT (Cayman). […] Isoprotelenol was purchased from Research Biochimicals International.

[1] = cAMP, CHO cells with human β3, read-out: ED50 (the source's name)

T1 sequence (P13945 whole entry, the tested form may be a part): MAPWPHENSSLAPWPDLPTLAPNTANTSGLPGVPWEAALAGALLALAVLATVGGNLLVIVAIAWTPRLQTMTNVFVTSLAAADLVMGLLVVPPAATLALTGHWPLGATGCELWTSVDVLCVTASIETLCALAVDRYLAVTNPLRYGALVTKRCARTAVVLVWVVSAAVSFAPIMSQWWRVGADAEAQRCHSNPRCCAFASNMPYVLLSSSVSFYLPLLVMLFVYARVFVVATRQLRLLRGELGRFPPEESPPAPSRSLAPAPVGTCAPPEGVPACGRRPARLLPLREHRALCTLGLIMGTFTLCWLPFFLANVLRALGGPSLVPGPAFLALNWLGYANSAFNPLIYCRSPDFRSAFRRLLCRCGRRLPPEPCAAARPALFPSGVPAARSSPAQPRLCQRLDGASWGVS

| EC50 [1] [nM] | Intrinsic activity (%) (relative activity for isoproterenol, cAMP, CHO cells with human β3) | SMILES | EC50 [nM] | Emax [%] |
| --- | --- | --- | --- | --- |
| – | – | CS(=O)(=O)Nc1cc(C(O)CNCCOc2ccc3c(c2)[nH]c2ccccc23)ccc1OCc1ccccc1 (racemic) [Example 1, (±)-N-[5-[2-[2-(9H-Carbazol-2-yloxy)ethylamino]-1-hydroxyethyl]-2-benzyloxyphenyl]methanesulfonamide Hydrochloride] | 340 | 80 |
| – | – | CS(=O)(=O)Nc1cc(C(O)CNCCOc2ccc3c(c2)[nH]c2ccccc23)ccc1F (racemic) [Example 5, (±)-N-[5-[2-[2-(9H-Carbazol-2-yloxy)ethylamino]-1-hydroxyethyl]-2-fluorophenyl]methanesulfonamide Hydrochloride] | 66 | 114 |
| – | – | CS(=O)(=O)Nc1cc(C(O)CNCCOc2ccc3c(c2)[nH]c2ccccc23)ccc1Cl (racemic) [Example 6, (±)-N-[5-[2-[2-(9H-Carbazol-2-yloxy)ethylamino]-1-hydroxyethyl]-2-chlorophenyl]methanesulfonamide Hydrochloride] | 33 | 119 |
| – | – | O=S(=O)(Cc1ccccc1)Nc1cccc(C(O)CNCCOc2ccc3c(c2)[nH]c2ccccc23)c1 (racemic) [Example 8, (±)-N-[3-[2-[2-(9H-Carbazol-2-yloxy)ethylamino]-1-hydroxyethyl]phenyl]phenylmethanesulfonamide Hydrochloride] | 720 | 47 |
| 150 | – | CC(=O)Nc1ccc2c(c1)Cc1cc(OCCNCC(O)c3cccc(NS(C)(=O)=O)c3)ccc1-2 (racemic) [Example 10, (±)-N-[3-[2-[2-(9H-7-Acetylaminofluoren-2-yloxy)ethylamino]-1-hydroxyethyl]phenyl]methanesulfonamide Hydrochloride] | – | 47 |
| 26 | – | CC(COc1ccc2c(c1)[nH]c1ccccc12)NCC(O)c1cccc(NS(C)(=O)=O)c1 (racemic) [Example 11, (±)-N-[3-[2-[[1-(9H-Carbazol-2-yloxy)propan-2R-yl]amino]-1-hydroxyethyl]phenyl]methanesulfonamide Hydrochloride] | – | 95 |
| – | – | CNS(=O)(=O)c1cccc(C(O)CNCCOc2ccc3c(c2)[nH]c2ccccc23)c1 (racemic) [Example 16, (±)-N-methyl-3-[2-[2-(9H-Carbazol-2-yloxy)ethylamino]-1-hydroxyethyl]benzenesulfonamide Hydrochloride] | 30 | 99 |
| – | – | O=CNc1cccc(C(O)CNCCOc2ccc3c(c2)[nH]c2ccccc23)c1 (racemic) [Example 17, (±)-N-[3-[2-[2-(9H-Carbazol-2-yloxy)ethylamino]-1-hydroxyethyl]phenyl]formamide Hydrochloride] | 910 | 53 |
| 32 | – | O=[N+]([O-])c1cc(C(O)CNCCOc2ccc3c(c2)[nH]c2ccccc23)ccc1O (racemic) [Example 18, (±)-2-[N-[2-(9H-Carbazol-2-yloxy)ethyl]amino]-1-(4-hydroxy-3-nitrophenyl)]ethanol Hydrochloride] | – | 90 |
| – | – | OC(CNCCOc1ccc2c(c1)[nH]c1ccccc12)c1ccccc1F (racemic) [Example 28, (±)-2-[N-[2-(9H-Carbazol-2-yloxy)ethyl]amino]-1-(2-fluorophenyl)ethanol Hydrochloride] | 1000 | 97 |
| – | – | Oc1ccc(C(O)CNCCOc2ccc3c(c2)[nH]c2ccccc23)cc1 (racemic) [Example 29, (±)-2-[N-[2-(9H-Carbazol-2-yloxy)ethyl]amino]-1-(4-hydroxyphenyl)ethanol Hydrochloride] | 250 | 120 |
| – | – | OC(CNCCOc1ccc2oc3ccccc3c2c1)c1ccccc1 (racemic) [Example 34, (±)-2-[N-[2-(Dibenzofuran-2-yloxy)ethyl]amino]-1-phenyl ethanol Hydrochloride] | 4600 | 37 |
| 17 | – | CC(=O)Nc1ccc2c(c1)Cc1cc(OCCNCC(O)c3ccc(O)c(NS(=O)(=O)N(C)C)c3)ccc1-2 (racemic) [Example 45, (±)-N′-[5-[2-[2-(9H-7-Acetylaminofluoren-2-yloxy)ethylamino]-1-hydroxyethyl]-2-hydroxyphenyl]-N,N-dimethylsulfamide Hydrochloride] | – | 89 |
| 2000 | – | Nc1cccc(C(O)CNCCOc2ccc3c(c2)[nH]c2ccccc23)c1 (racemic) [Example 47, (±)2-[N-[2-(9H-Carbazol-2-yloxy)ethyl]amino]-1-(3-aminophenyl)]ethanol Hydrochloride] | – | 86 |
| – | – | CN(C)S(=O)(=O)Nc1cccc(C(O)CNCCOc2ccc3c(c2)[nH]c2ccccc23)c1 (racemic) [Example 48, (±)-N′-[3-[2-[2-(9H-Carbazol-2-yloxy)ethylamino]-1-hydroxyethyl]phenyl]-N,N-dimethylsulfamide Hydrochloride] | 220 | 73 |
| – | – | CS(=O)(=O)Nc1cc(C(O)CNCCOc2ccc3c(c2)oc2ccccc23)ccc1F (racemic) [Example 55, (±)-N-[5-[2-[2-(Dibenzofuran-3-yloxy)ethylamino]-1-hydroxyethyl]2-fluorophenyl]methanesulfonamide Hydrochloride] | 230 | 76 |
| – | – | CS(=O)(=O)Nc1cc(C(O)CNCCOc2ccc3c(c2)sc2ccccc23)ccc1F (racemic) [Example 56, (±)-N-[5-[2-[2-(Dibenzothiophen-3-yloxy)ethylamino]-1-hydroxyethyl]-2-fluorophenyl]methanesulfonamide Hydrochloride] | 630 | 97 |
| – | – | CS(=O)(=O)Nc1cc(C(O)CNCCOc2ccc3c(c2)oc2ccccc23)ccc1Cl (racemic) [Example 57, (±)-N-[5-[2-[2-(Dibenzofuran-3-yloxy)ethylamino]-1-hydroxyethyl]-2-chlorophenyl]methanesulfonamide Hydrochloride] | 230 | 68 |
| – | – | CS(=O)(=O)Nc1cc(C(O)CNCCOc2ccc3c(c2)sc2ccccc23)ccc1Cl (racemic) [Example 58, (±)-N-[5-[2-[2-(Dibenzothiophen-3-yloxy)ethylamino]-1-hydroxyethyl]-2-chlorophenyl]methanesulfonamide Hydrochloride] | 550 | 91 |
| – | – | CS(=O)(=O)Nc1cc(O)cc(C(O)CNCCOc2ccc3c(c2)[nH]c2ccccc23)c1 (racemic) [Example 62, (±)-N-[5-[2-[2-(9H-Carbazol-2-yloxy)ethylamino]-1-hydroxyethyl]-3-hydroxyphenyl]methanesulfonamide Hydrochloride] | 210 | 106 |
| 72 | – | CNS(=O)(=O)c1cc(C(O)CNCCOc2ccc3c(c2)[nH]c2ccccc23)ccc1O (racemic) [Example 66, (±)-N-methyl-[5-[2-[2-(9H-Carbazol-2-yloxy)ethylamino]-1-hydroxyethyl]-2-hydroxy]benzenesulfonamide Hydrochloride] | – | 106 |
| 38 | 92 | CC(=O)Nc1ccc2[nH]c3cc(OCCNCC(O)c4cccc(NS(C)(=O)=O)c4)ccc3c2c1.Cl (racemic) [Example 68, (±)-N-[3-[2-[2-(9H-6-(Acetylamino)carbazol-2-yloxy]ethylamino]-1-hydroxyethyl]phenyl]methanesulfonamide Hydrochloride] | – | – |
| – | – | CS(=O)(=O)Nc1cc(C(O)CNCCOc2ccc3c(c2)[nH]c2ccccc23)ccc1N (racemic) [Example 82, (±)-N-[5-[2-[2-(9H-Carbazol-2-yloxy)ethylamino]-1-hydroxyethyl]-2-aminophenyl]methanesulfonamide Hydrochloride] | 2800 | 130 |
| 740 | – | CN(Cc1ccccc1)S(=O)(=O)c1cc(C(O)CNCCOc2ccc3c(c2)[nH]c2ccccc23)ccc1O (racemic) [Example 83, (±)-N-Methyl-N-benzyl-[5-[2-[2-(9H-carbazol-2-yloxy)ethylamino]-1-hydroxyethyl]-2-hydroxy]benzenesulfonamide Hydrochloride] | – | 79 |
| 58 | – | CS(=O)(=O)Nc1cc(C(O)CNCCOc2ccc3c(c2)[nH]c2ccccc23)ccc1CO (racemic) [Example 84, (±)-N-[5-[2-[2-(9H-Carbazol-2-yloxy)ethylamino]-1-hydroxyethyl]-2-(hydroxymethyl)phenyl]methanesulfonamide] | – | 71 |
| 56 | – | CS(=O)(=O)Nc1cc(C(O)CNCCOc2ccc3c(c2)[nH]c2ccccc23)ccc1Br (racemic) [Example 85, (±)-N-[5-[2-[2-(9H-Carbazol-2-yloxy)ethylamino]-1-hydroxyethyl]-2-bromophenyl]methanesulfonamide] | – | 70 |
| – | – | CN(Cc1ccccc1)S(=O)(=O)Nc1cc(C(O)CNCCOc2ccc3c(c2)[nH]c2ccccc23)ccc1O (racemic) [Example 87, (±)-N′-[5-[2-[2-(9H-Carbazol-2-yloxy)ethylamino]-1-hydroxyethyl]-2-hydroxyphenyl]-N-methyl-N-benzylsulfamide Hydrochloride] | 84 | 138 |
